A short description of data set [1]: Thermodynamic aqueous solubility. It counts as physicochemical.
For data set [2], the system named is L. infantum (MHOM/MA(BE)/67/ITMAP263) amastigotes. As to the kind of experiment: L. infantum intramacrophage amastigote assay. Type of data set: cell-based, Leishmania infantum. The conditions noted are these: for EC50: Leishmania infantum, 120 h, read-out: L.inf pEC50 (converted); for SI: ratio CC50 μM (PMM)/EC50 μM (L.inf).
Data set [3] in a line: Cytotoxicity toward primary peritoneal mouse macrophages. It counts as cell-based. The conditions noted are these: Swiss, mouse, primary peritoneal mouse macrophages (PMM), PMM pCC50, primary mouse macrophages; highest in-test concentration 64 μM.
Data set [4] in a line: Rat hepatocyte intrinsic clearance. Type of data set: in vitro ADME. The conditions noted are these: for hepatocyte CLint: rat, rat hepatocytes.
The nature of data set [5]: Human liver microsome intrinsic clearance. The settings on record: for microsomal CLint at 3 µM: human, human liver microsomes, pH 7.4, HLM clint. Type of data set: in vitro ADME. Background: Microsomes from liver hold many membrane-bound enzymes, among them those of drug oxidation.

Each structure is given as a SMILES string. A value given as a limit tells only on which side of the number the result lay.

In turn, `Fc1ccc(Nc2c(-c3ccccn3)nc3ccncn23)cc1` [Compound 3g, N-(4-Fluorophenyl)-2-(pyridin-2-yl)imidazo[1,2-c]pyrimidin-3-amine] displayed an aq. sol. in data set [1] of 64 µM. Besides, in data set [2], the EC50 was 50.1 µM and the SI is recorded as 1. This compound returned a CC50 at 5 days in data set [3] of over 63.1 µM.
In turn, `c1ccc(-c2cn3ccccc3n2)nc1` [Compound 11a, 2-(Pyridin-2-yl)imidazo[1,2-a]pyridine] showed an aq. sol. in data set [1] of 828 µM. Moreover, in data set [4], the hepatocyte CLint was 140 µL/min/1e6 cells. For the same compound, in data set [2], the EC50 was 50.1 µM and the SI was 1. Further, the CC50 at 5 days in data set [3] was over 63.1 µM. In data set [5], the microsomal CLint at 3 µM worked out at 130 µL/min/mg.
`Fc1ccc(Nc2c(-c3ccccn3)nc3ccc(F)cn23)cc1` [Compound 3e, 6-Fluoro-N-(4-fluorophenyl)-2-(pyridin-2-yl)imidazo[1,2-a]pyridin-3-amine] gave an aq. sol. in data set [1] of 25 µM. Further, the hepatocyte CLint in data set [4] was over 300 µL/min/1e6 cells. In data set [2], the EC50 is 7.94 µM and the SI is listed as 6. Besides, the CC50 at 5 days in data set [3] is 50.1 µM. Moreover, the microsomal CLint at 3 µM in data set [5] was over 300 µL/min/mg.
For `Fc1ccc(Nc2c(-c3ccccn3)nc3cc(F)ccn23)cc1` [Compound 3h, 7-Fluoro-N-(4-fluorophenyl)-2-(pyridin-2-yl)imidazo[1,2-a]pyridin-3-amine], the aq. sol. in data set [1] worked out at 0.1 µM. In data set [4], this compound gave a hepatocyte CLint of 146 µL/min/1e6 cells. In data set [2], the EC50 was 25.1 µM and the SI was found to be 3. The compound further returned a CC50 at 5 days in data set [3] of over 63.1 µM. In data set [5], this compound gave a microsomal CLint at 3 µM of over 300 µL/min/mg.
In data set [1], `Fc1ccc(Nc2c(-c3ccccn3)nc3sccn23)cc1` [Compound 3r, N-(4-Fluorophenyl)-6-(pyridin-2-yl)imidazo[2,1-b][1,3]thiazol-5-amine] had an aq. sol. of 76 µM. In data set [4], the hepatocyte CLint is over 300 µL/min/1e6 cells. Besides, in data set [2], the EC50 is 7.94 µM and the SI is 4. The CC50 at 5 days in data set [3] is 31.6 µM. The same compound returned an intrinsic clearance (microsomal CLint) at 3 µM in data set [5] of 270 µL/min/mg.
Turning to `COc1ccc2nc(-c3ccccn3)c(Nc3ccc(F)cc3)n2c1` [Compound 3f, N-(4-Fluorophenyl)-6-methoxy-2-(pyridin-2-yl)imidazo[1,2-a]pyridin-3-amine], in data set [2], the EC50 is 2 µM and the SI stood at 16. For the same compound, in data set [3], the CC50 at 5 days is 31.6 µM.
Turning to `Fc1ccc(Nc2c(-c3ccccn3)nc3ccccn23)nc1` [Compound 8, 5-Fluoro-N-[2-(pyridin-2-yl)imidazo[1,2-a]pyridin-3-yl]pyridin-2-amine], the “metabolic stability class in rat hepatocytes” value in data set [4] (clearance class in words) is recorded as “moderate (5.1 ≤ moderate ≤27)”. In data set [5] (clearance class in words), the “metabolic stability class in human liver microsomes” value is given as “moderate (8.6 ≤ moderate ≤47)”.
The compound `COc1ccn2c(Cl)c(-c3ccccn3)nc2c1` [Compound 12, 3-Chloro-7-methoxy-2-(pyridin-2-yl)imidazo[1,2-a]pyridine] displayed an aq. sol. in data set [1] of 562 µM. The hepatocyte CLint in data set [4] worked out at 17 µL/min/1e6 cells. Besides, in data set [2], the EC50 was 15.8 µM and the SI was determined as 2. This compound also showed a CC50 at 5 days in data set [3] of 31.6 µM. The compound further showed a microsomal CLint at 3 µM in data set [5] of over 300 µL/min/mg.
`Fc1ccc(Nc2c(-c3ccccn3)nc3cccc(F)n23)cc1` [Compound 3b, 5-Fluoro-N-(4-fluorophenyl)-2-(pyridin-2-yl)imidazo[1,2-a]pyridin-3-amine]: the aq. sol. in data set [1] came to 26 µM. The compound further displayed an intrinsic metabolic clearance (hepatocyte CLint) in data set [4] of 190 µL/min/1e6 cells. In data set [2], the EC50 is 7.94 µM and the SI is on record as 8. In data set [3], this compound had a CC50 at 5 days of over 63.1 µM. Also, the microsomal CLint at 3 µM in data set [5] is 60 µL/min/mg.
For the compound `Fc1ccc(Nc2c(-c3ccccn3)nc3c(F)cccn23)cc1` [Compound 3k, 8-Fluoro-N-(4-fluorophenyl)-2-(pyridin-2-yl)imidazo[1,2-a]pyridin-3-amine], in data set [1], the aq. sol. stood at 12 µM. Moreover, the hepatocyte CLint in data set [4] is 101 µL/min/1e6 cells. Moreover, in data set [2], the EC50 was 39.8 µM and the SI worked out at 2. Also, in data set [3], the CC50 at 5 days is over 63.1 µM. In data set [5], this compound returned a microsomal CLint at 3 µM of 220 µL/min/mg.
Compound `Fc1ccc(Nc2c(-c3ccccn3)nc3cccnn23)cc1` [Compound 3d, N-(4-Fluorophenyl)-2-(pyridin-2-yl)imidazo[1,2-b]pyridazin-3-amine] yielded an aq. sol. in data set [1] of 68 µM. The compound also showed a hepatocyte CLint in data set [4] of over 300 µL/min/1e6 cells. In data set [2], the EC50 is 15.8 µM and the SI worked out at 2. The compound also had a CC50 at 5 days in data set [3] of 31.6 µM. For the same compound, the microsomal CLint at 3 µM in data set [5] amounted to 212 µL/min/mg.
In data set [1], `COc1cccc2nc(-c3ccccn3)c(Nc3ccc(F)cc3)n12` [Compound 3c, N-(4-Fluorophenyl)-5-methoxy-2-(pyridin-2-yl)imidazo[1,2-a]pyridin-3-amine] returned an aq. sol. of 62 µM. The same compound had a hepatocyte CLint in data set [4] of 30 µL/min/1e6 cells. In data set [2], the EC50 is 7.94 µM and the SI came to 1. Also, the midpoint of cytotoxicity in data set [3], the CC50 at 5 days, lay at 7.94 µM. The microsomal CLint at 3 µM in data set [5] worked out at 28 µL/min/mg.
`COc1cccn2c(Nc3ccc(F)cc3)c(-c3ccccn3)nc12` [Compound 3l, N-(4-Fluorophenyl)-8-methoxy-2-(pyridin-2-yl)imidazo[1,2-a]pyridin-3-amine]: in data set [1], the aq. sol. came to 2 µM. In data set [4], this compound displayed a hepatocyte CLint of 29 µL/min/1e6 cells. In addition, in data set [2], the EC50 was 7.94 µM and the SI is 8. Also, in data set [3], the CC50 at 5 days was over 63.1 µM. Further, in data set [5], the microsomal CLint at 3 µM turned out to be 143 µL/min/mg.
Take `Fc1ccc(Nc2c(-c3ccccn3)nc3ccc(-c4cnoc4)cn23)cc1` [Compound 3q, N-(4-Fluorophenyl)-6-(1,2-oxazol-4-yl)-2-(pyridin-2-yl)imidazo[1,2-a]pyridin-3-amine]: the aq. sol. in data set [1] turned out to be 3 µM. The same compound came in with a hepatocyte CLint in data set [4] of 128 µL/min/1e6 cells. In data set [2], the EC50 is 25.1 µM and the SI was found to be 3. The compound further showed a CC50 at 5 days in data set [3] of over 63.1 µM. Moreover, the microsomal CLint at 3 µM in data set [5] came to 75 µL/min/mg.
For the compound `CSc1ccc2nc(-c3ccccn3)c(Nc3ccc(F)cc3)n2c1` [Compound 3n, N-(4-Fluorophenyl)-6-(methylsulfanyl)-2-(pyridin-2-yl)imidazo[1,2-a]pyridin-3-amine], the aq. sol. in data set [1] was found to be 0.5 µM. In addition, the hepatocyte CLint in data set [4] was over 300 µL/min/1e6 cells. Besides, in data set [2], the EC50 was 7.94 µM and the SI came to 1. This compound also showed a CC50 at 5 days in data set [3] of 7.94 µM. This compound also returned an intrinsic clearance (microsomal CLint) at 3 µM in data set [5] of 247 µL/min/mg.
Compound `Fc1ccc(Nc2c(-c3ccccn3)nc3ncccn23)cc1` [Compound 3m, N-(4-Fluorophenyl)-2-(pyridin-2-yl)imidazo[1,2-a]pyrimidin-3-amine] had an aq. sol. in data set [1] of 180 µM. The same compound yielded a hepatocyte CLint in data set [4] of 64.8 µL/min/1e6 cells. In data set [2], the EC50 is 50.1 µM and the SI stood at 1. Besides, the CC50 at 5 days in data set [3] was over 63.1 µM. The same compound had a microsomal CLint at 3 µM in data set [5] of 42.4 µL/min/mg.
`CS(=O)(=O)c1ccc2nc(-c3ccccn3)c(Nc3ccc(F)cc3)n2c1` [Compound 3o, N-(4-Fluorophenyl)-6-methanesulfonyl-2-(pyridin-2-yl)imidazo[1,2-a]pyridin-3-amine] yielded an aq. sol. in data set [1] of 5 µM. Also, in data set [4], the hepatocyte CLint is over 300 µL/min/1e6 cells. In data set [2], the EC50 is 31.6 µM and the SI stood at 1. This compound had a CC50 at 5 days in data set [3] of 31.6 µM.
With `COc1ccn2cc(-c3ccccn3)nc2c1` [Compound 11b, 7-Methoxy-2-(pyridin-2-yl)imidazo[1,2-a]pyridine], in data set [1], the aq. sol. came out at 723 µM. Besides, in data set [2], the EC50 was 25.1 µM and the SI turned out to be 3. This compound registered a CC50 at 5 days in data set [3] of over 63.1 µM. The compound further returned a microsomal CLint at 3 µM in data set [5] of over 300 µL/min/mg.

A word on the CC50: it is the concentration at which the toxic effect on the cells reaches its halfway point. Higher therefore signals lower toxicity to the cells. By hepatocyte CLint is commonly meant a measure of how fast metabolising enzymes remove a compound, apart from limits set by blood flow. For orientation: microsomal CLint means the rate of metabolic loss divided by the concentration. Lower therefore signals greater metabolic stability.

These data come from PMC10425983 (ACS Infectious Diseases, 2023).
